Experimental data reported in paper PMC12040169 (PLOS Biology, 2025).

How the values were obtained:
in vitro = assay: in vitro; set-up: Viability of infected HeLa host cells, resazurin conversion, bulk resorufin fluorescence relative to DMSO; conditions: human, hela cells; bulk resorufin, mean of 2
[1] = system: T1, C. trachomatis L2/434/Bu expressing GFP (CTL2-GFP); assay: microbe, parasite or virus in culture; set-up: C. trachomatis total inclusion area by high-content imaging, normalised to DMSO; conditions: Chlamydia trachomatis, HeLa, 28.5 h; total inclusion area; read-out: % of control remaining
T1 construct: L2/434/Bu GFP intracellular growth in HeLa cells
Summary of the method: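 Infected cells treated with library compounds were read for bulk GFP (chlamydial growth) and resorufin fluorescence (host viability), then fixed, Hoechst-stained and imaged. Inclusion area and number from GFP, plus nuclei counts, served as additional growth and viability proxies; MICs derived as previously described.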

[2] = system: T2, CTL2-GFP (C. trachomatis L2/434/Bu, GFP-expressing); assay: microbe, parasite or virus in culture; set-up: Intracellular C. trachomatis growth in HeLa cells, bulk GFP fluorescence relative to DMSO; conditions: Chlamydia trachomatis, HeLa, 28.5 h; bulk GFP, mean of 2; read-out: % of control remaining
T2 construct: L2/434/Bu, GFP-expressing
Protocol: MICs were calculated as described above.

Structure (SMILES) | viability at 28.5 h, 1 µM (in vitro) [%] | viability at 28.5 h, 5 µM (in vitro) [%] | viability at 28.5 h, 10 µM (in vitro) [%] | activity at 1 µM [1] [%] | activity at 5 µM [1] [%] | activity at 10 µM [1] [%] | activity at 1 µM [2] [%] | activity at 5 µM [2] [%] | activity at 10 µM [2] [%]
Cn1c(=O)c2c(ncn2Cc2ccccc2)n(C)c1=O [CBK133402] | 111 | 110 | 109 | 100 | 51.9 | 66.7 | 119 | 115 | 111
CC(=O)Nc1ccc(-c2cccc(COC3CCN(C(=O)c4ccc(OC(C)C)cc4)CC3)c2)cc1 [CBK149485] | 89.4 | 92.4 | 93.9 | 97.4 | 32.5 | 7.93 | 107 | 30.6 | 6.64
O=C(NCCc1c[nH]c2ccc(Cl)cc12)c1ccc(Cl)cc1Br [CBK159755] | 89 | 88.9 | 93.1 | 91 | 79.9 | 32.4 | 100 | 71.3 | 19.1
Cc1cc(Br)ccc1C(=O)NCCc1c[nH]c2ccc(Cl)cc12 [CBK159771] | 109 | 106 | 108 | 116 | 67.5 | 47.4 | 95.1 | 57.5 | 22.3
CC(C)c1ccc(/C=C/C(=O)NCc2ccc(NS(C)(=O)=O)cc2)cc1 [CBK161512] | 101 | 104 | 94.9 | 74.8 | 59.3 | 20.9 | 138 | 96.2 | 43.8
CC(C)(C)c1ccc(N(C2CCNCC2)S(=O)(=O)c2cccc(C(F)(F)F)c2)cc1 [CBK165056T] | 99.8 | 107 | 45.6 | 78 | 50.5 | 1 | 103 | 77.9 | 24.3
O=C(OCCC1SC(NC2CC3C=CC2C3)=NC1=O)c1ccc(Cl)c([N+](=O)[O-])c1 (stereo not drawn) [CBK200060T] | 92.3 | 96.8 | 88.4 | 132 | 108 | 68.7 | 140 | 129 | 103
O=[N+]([O-])c1ccc(-n2cnc3ccccc32)c([N+](=O)[O-])c1 [CBK261120] | 107 | 88.2 | 111 | 86.4 | 46.4 | 2.35 | 104 | 40.1 | 0
CC1=C(C)C(=NNC(N)=S)C(C)=C(C)C1=NNC(N)=S [CBK261262] | 90.9 | 90.8 | 90.6 | 96.7 | 31.5 | 17.1 | 116 | 39.1 | 12.7
COc1nccnc1NS(=O)(=O)c1ccc(Nc2c([N+](=O)[O-])cc([N+](=O)[O-])c3nonc23)cc1 [CBK261441] | 90.8 | 95.9 | 94.2 | 42.6 | 28.1 | 24.2 | 33.2 | 18 | 10.6
Cc1noc(NS(=O)(=O)c2ccc(NC(=O)COc3ccc(Cl)cc3Cl)cc2)c1C [CBK262142] | 95.1 | 97.3 | 100 | 102 | 49.8 | 24.6 | 103 | 26.5 | 14.3
COc1ccc(-c2csc(/C(C#N)=C/Nc3ccc(S(=O)(=O)Nc4nccs4)cc3)n2)cc1 [CBK262374] | 99.9 | 95.6 | 96.2 | 134 | 95 | 96.5 | 146 | 131 | 113
CCc1nnc(NS(=O)(=O)c2ccc(N/C=C3\C(=O)N(c4ccc(Cl)cc4)N=C3C)cc2)s1 [CBK262416] | 91.9 | 94.3 | 93.3 | 102 | 50.5 | 27 | 91.1 | 26.1 | 13.2
Cc1cc(NS(=O)(=O)c2ccc(Nc3nc(-c4cccs4)cs3)cc2)no1 [CBK262504] | 86.5 | 92.2 | 88.4 | 112 | 45.8 | 19.5 | 96.7 | 25.1 | 15.9
O=C(NCCCn1ccnc1)c1cc(-c2ccc(Br)cc2)nc2ccccc12 [CBK262645] | 103 | 107 | 94.9 | 126 | 95.8 | 45.4 | 138 | 87.8 | 31.9
COc1cc(NS(=O)(=O)c2ccc(N/C=C3/CCc4ccccc4C3=O)cc2)nc(OC)n1 [CBK263376] | 101 | 99.1 | 78.6 | 83.5 | 48.7 | 12.5 | 108 | 26 | 22.7
Cc1cc(OCC(=O)Nc2ccc(S(=O)(=O)Nc3onc(C)c3C)cc2)cc(C)c1Cl [CBK263491] | 103 | 100 | 117 | 55.4 | 25.5 | 11.8 | 59.3 | 15.2 | 5.2
CCOC(=O)c1c(C)n(-c2ccc(C)cc2)c2ccc(O)c(CN(C)C)c12 [CBK263499C] | 101 | 93.4 | 90.3 | 89 | 95.9 | 12.4 | 124 | 104 | 38.4
CN(C)CCNc1nc(-c2ccc(Cl)cc2)nc2ccccc12 [CBK263942] | 94.8 | 97 | 94.4 | 64.3 | 38.6 | 5.67 | 111 | 85.1 | 47.9
Cc1noc(NS(=O)(=O)c2ccc(NC(=O)CCN3C(=O)c4ccccc4C3=O)cc2)c1C [CBK264091] | 92.8 | 92.8 | 91.3 | 99.8 | 67.5 | 32.7 | 106 | 40.3 | 28.9
O=C(NCc1cccnc1)/C(=C/c1ccc(-c2cccc(Cl)c2)o1)S(=O)(=O)c1ccccc1 [CBK264508] | 107 | 100 | 97.8 | 78.5 | 44 | 10.3 | 101 | 45 | 8.14
CC(C)(C)CC(C)(C)NC(=S)Nc1ccc2nc(-c3ccccn3)c(-c3ccccn3)nc2c1 [CBK265118] | 110 | 106 | 98 | 82.1 | 31.9 | 16.8 | 95.9 | 66.8 | 47.2
Cc1noc(NS(=O)(=O)c2ccc(NC(=O)/C=C/c3ccc(C(C)C)cc3)cc2)c1C [CBK265430] | 108 | 102 | 106 | 69.9 | 23.1 | 22.2 | 66.5 | 26.3 | 11.6
O=C(NCCCn1ccnc1)c1cc(-c2cccc(Br)c2)nc2ccccc12 [CBK265476] | 108 | 115 | 116 | 76.4 | 28.5 | 3.75 | 88.9 | 13 | 0
Cn1cc(C(c2ccc(OCC(=O)O)cc2)c2cn(C)c3ccccc23)c2ccccc21 [CBK266403] | 113 | 111 | 115 | 87.5 | 36 | 2.98 | 91 | 23.4 | 9.15
